“Also recorded” adds a separate entry of the source. Where two headings read alike, the source gives them in different places.
Key:
[1] = Electrochemical testing (Tafel Plot), corrosion current, corrosion potential and pH of simulated acid rain saturated with pigment
Primary skin irritation = assay type: in vivo; conditions: 0.5 g in Saline Paste
[2] = Salt spray exposure, Example VI (ASTM B117-73; alkyd and latex primers); conditions: for Salt spray durability, in words: FIG. 3, alkyd formulation
Draize eye irritation = assay type: in vivo; conditions: 100 mg
[3] = Salt spray exposure, Example V (alkyd and latex primers)
Acute oral toxicity = assay type: in vivo
[4] = water
[5] = in vivo; cited from earlier work
[6] = Table III, simulated acid rain electrolyte pH about 4.2, saturated with pigment

## NCCN.O=C([O-])CCCCC(=O)[O-].[Zn+2] [Compound 3, Zinc Adipate Ethylenediamine]
[1]; [6]
  Corrosion Curr. (Icorr): 78 microamps
Primary skin irritation
  Skin Irritation, rating in words: minimally irritating
[2]
  Salt spray durability, in words: superior to "Zinc Yellow" (zinc chromate) in salt spray durability
Draize eye irritation
  Eye Irritation, rating in words: moderately-irritating

## CC(N)CN.O=C([O-])CCCCC(=O)[O-].[Zn+2] [Compound 4, Zinc Adipate Propylenediamine]
[2]
  Salt spray durability, in words: superior to "Zinc Yellow" (zinc chromate) in salt spray durability

## NCCN.O=C([O-])CCCCCCCC(=O)[O-].[Zn+2] [Compound 5, Zinc Azelate Ethylenediamine]
[1]; Table III
  pH: 6.78
[1]; Table III, against saturated calomel electrode
  Corrosion Pot. (Ecorr): -667 millivolts
[1]; [6]
  Corrosion Curr. (Icorr): 82 microamps
[3]; distended on kaolin
  Effect of kaolin on salt spray performance: anomolously reduced the performance

## NCCN.O=C([O-])CCCCCCCCC(=O)[O-].[Zn+2] [Compound 6, Zinc Sebacate Ethylenediamine]
[1]
  Corrosion Curr. (Icorr): 170 microamps
  Corrosion Pot. (Ecorr): -462 millivolts
  pH: 6.8
Primary skin irritation
  Skin Irritation, rating in words: minimally irritating
Draize eye irritation
  Eye Irritation, rating in words: severely irritating

## O=C([O-])CCCCCCCCCCC(=O)[O-].OCCN(CCO)CCO.[Zn+2] [Compound 10, Zinc Dibasate Triethanolamine]
[1]
  Corrosion Curr. (Icorr): 93 microamps
  Corrosion Pot. (Ecorr): -580 millivolts
  pH: 7.2

## NCCN.O=C([O-])CCCCCCCCCCC(=O)[O-].[Zn+2] [Compound 11, Zinc Dodecanedioate Ethylenediamine]
[1]; [6]
  Corrosion Curr. (Icorr): 130 microamps
[2]
  Salt spray durability, in words: superior to "Zinc Yellow" (zinc chromate) in salt spray durability

## CCNCC.O=C([O-])CCCCCCCCCCC(=O)[O-].[Zn+2] [Compound 12, Zinc Dodecanedioate Diethylamine]
[1]
  Corrosion Curr. (Icorr): 197 microamps

## NCCN.O=C([O-])c1ccccc1C(=O)[O-].[Zn+2] [Compound 17, Zinc Phthalate Ethylenediamine]
[1]
  Corrosion Curr. (Icorr): 83 microamps
Primary skin irritation
  Skin Irritation, rating in words: non-irritating

## NCCN.O=C([O-])c1cccc(C(=O)[O-])c1.[Zn+2] [Compound 18, Zinc Isophthalate Ethylenediamine]
[2]
  Salt spray durability, in words: superior to "Zinc Yellow" (zinc chromate) in salt spray durability

## Zinc Dibasate Diethylamine [Compound 9]
[1]
  Corrosion Pot. (Ecorr): -570 millivolts
  pH: 7.0
Draize eye irritation
  Eye Irritation, rating in words: mildly irritating
Acute oral toxicity; Oral (5 g/kg in Corn Oil)
  Acute oral toxicity, mortality: 0%

## Zinc Dibasate Dimethylamine [Compound 21]
[1]
  Corrosion Curr. (Icorr): 82 microamps
  Corrosion Pot. (Ecorr): -610 millivolts

## Zinc Dibasate Piperidine [Compound 24]
[1]
  Corrosion Curr. (Icorr): 40 microamps
  Corrosion Pot. (Ecorr): -610 millivolts

## Zinc Dibasate Propylenediamine [Compound 8]
[4]
  Solubility Description: SS (key: PINS: practically insoluble (<.1 g/100 cc H2 O); SS: slightly soluble (.1 to 1 g/100 cc H2 O); MS: moderately soluble)

## Zinc Sulfonyldiphenolate Ethylenediamine [Compound 15]
[1]
  Corrosion Curr. (Icorr): 170 microamps
  Corrosion Pot. (Ecorr): -592 millivolts
  pH: 7.67
Primary skin irritation
  Skin Irritation, rating in words: non-irritating
Draize eye irritation
  Eye Irritation, rating in words: severely irritating

## Zinc Thiodiphenolate Ethylenediamine [Compound 14]
[1]
  Corrosion Curr. (Icorr): 52.5 microamps
  Corrosion Pot. (Ecorr): -570 millivolts
  pH: 8.60
[3]
  Effect of kaolin on salt spray performance: kaolin likewise enhanced the performance
  Hours to failure in salt spray (performance level): approximately 780 hours
[2]
  Paint panel durability in salt spray, in words: slightly less than half the durability achieved by the commercial "Zinc Yellow" (zinc chromate) corrosion-inhibitor formulation; also recorded: performed markedly better than commercially available corrosion inhibitors, such as Nalzin, Halox, Busan, "Moly White" and zinc phosphate
Draize eye irritation
  Eye Irritation, rating in words: extremely irritating
Acute oral toxicity; acute oral, skin and eye tests of Table VIII
  Toxicity characteristics (overall statement): unacceptable toxicity characteristics

## Zinc Thiodiphenolate Propylenediamine [Compound 20]
[1]
  Corrosion Curr. (Icorr): 46 microamps
  Corrosion Pot. (Ecorr): -560 millivolts
  pH: 8.18

## zinc chromate
[5]
  TDLo: 12 mg/kg

— patent US4774345A, “Amine-complexed zinc salts of organic diacids” (Engelhard Corporation, priority 1986, dated 1988)
